# Source: patent EP0068268A1, “Enhancer of anti-tumour effect” (Yamasa Shoyu Kabushiki Kaisha, priority 1981, dated 1983)
# Where two headings read alike, the source gives them in different places.
# Legend:
# [1] = system: EMT-6 tumors; test: Radiosensitizing effect on experimental tumors in mice (cure percentages and TCD50, Experiment 3); assay type: in vivo, BALB/c-strain female mice; details: for TCD50: 100 mg/kg intraperitoneally after 32 MeV electron beam irradiation, control 2400; for Cure number/Number treated (%) / Cure number/Number treated: 100 mg/kg intraperitoneally after irradiation; for Cure number/Number treated (%): cure percentage; for Cure number/Number treated: observation longer than 90 days; for TCD50 (ratio): ratio to control (1.0)
# Description: EMT-6 tumor cells ([…]) were inoculated intradermally into the right thighs of BALB/c-strain female mice (8 weeks old). When the tumor sizes reached 5.5 to 8.0 mm after inoculation of the tumor cells, irradiation was locally carried out with 1,000 rad to 2,700 rad of 32 MeV electron beam under no anesthesia, and thereafter 3'-dAdo and N^6-butyryl-3'-dAdo, each dissolved in physiological saline solution, were administered intraperitoneally in a dose of 100 mg/kg. After the treatments, observation was continued for longer than 90 days, and the cure percentages were determined for comparison with the control group. [formula] [formula]
# [2] = Acute toxicity test; set-up: species or system ICR mice; details: mouse, in vivo, ip
# Description: Various quantities of N -butyryl-3'-dAdo were administered intraperitoneally to ICR mice (male, 8-weeks old, 10 mice for each group) in doses of 250 mg to 1,000 mg/kg, and the mice were subjected to observation for a week.
# [3] = system: RIF1 tumors; test: Radiosensitizing effect on experimental tumors in mice (tumor size after irradiation, Experiment 4); assay type: in vivo, C3H/Heston-strain female mice; details: for Mean tumor diameter (mm): n=7; for Sensitizing effect: relative to irradiation alone
# Description: RIF1 tumor cells ([…]) were inoculated intradermally into the right thighs of C3H/Heston-strain female mice (8 weeks old). When the tumor sizes reached 6.0 to 10.0 mm after inoculation of the tumor cells, irradiation was carried out with 2,500 rad/min. of an electron beam, and thereafter N^6-acetyl-3'-dAdo, N^6-butyryl-3'-dAdo, N^6-hexanoyl-3'-dAdo, and N - octanoyl-3'-dAdo, each dissolved in physiological saline solution, were administered intraperitoneally in a dose of 100 mg/kg. After the treatments, the tumor sizes in terms of diameters in three-axial directions were measured on the 10th day and the 20th day (9th day and the 21st day only in case of N^6-butyryl-3'-dAdo).
# [4] = system: Chinese hamster-HA-1 cells; test: Radiosensitizing effect on the tumor cells in culture (PLDR inhibition, colony forming ability after X-rays); assay type: cell-based
# Description: Cells under stationary phase, prepared by planting 2 x 10^5 cells/well of Chinese hamster-HA-1 cells in a multi-well dish and exchanging cultural medium every day starting on the third day and thereafter were irradiated with 1,000 R of X-rays. Immediately after radiation, N6-butyryl-3'-dAdo in Hanks' balanced salt solution were administered. Then, after elapse of various times, the cells were taken off with trypsin, and a suitable number of cells were transferred into petri dishes for testing colony forming ability and plating efficiencies. The percentages of survival were calculated with corrections by the plating efficiencies with the pharmaceutical agents alone.
# [5] = system: EMT-6 tumors; test: Radiosensitizing effect on experimental tumor in mice (tumor size after local irradiation, Experiment 2); assay type: in vivo, BALB/c-strain female mice; details: for Mean tumor diameter (mm): 1,500 rad 32 MeV electron beam, n = 9; for Sensitizing effect: diameter ratio with agent / diameter ratio with irradiation alone
# Description: EMT-6 tumor cells (2 x 10^5) were inoculated intradermally into the right thighs of BALB/c-strain female mice (8 weeks old, 6 or more mice for each group). When the tumor size reached 5.5 to 7.5 mm in diameter after inoculation of the tumor cells, local irradiation with a 32 MeV electron beam was carried out at 1,500 rad under no anesthesia and thereafter N^6-butyryl-3'-dAdo dissolved in physiological saline solution, was administered intraperitoneally to each mouse in 100 mg/kg. On the 9th day and 20th day after these treatments, t tumor sizes were measured in tri-dimensional diameters, and compared with the control group with respect to the following items: [formula] [formula] The results are shown in Table 2, in which "cure" means that the tumors completely vanished during the observation period.
# [6] = system: EMT-6 tumors; test: Enhancement of the effect of anti-tumor agents on experimental tumors in mice (Experiment 5); assay type: in vivo, BALB/c-strain mice; details: 14th day after treatment
# Description: EMT-6 tumor cells (1 x 10^6) were inoculated intradermally into the right thighs of BALB/c-strain mice (8 weeks old). On the 12th day after inoculation of the tumor cells and thereafter, each chemical in a physiological saline solution was administered intrapenitoneally to each mouse four times a week in the indicated doses for respective agents. The pharmaceutical agents of the present invention were administered one hour after administration of the anti-tumor agents. After commencement of the treatment with pharmaceutical agents, the tumor sizes were measured every other day and compared with those of the control group.
# [7] = 10th day after treatment, 2500 rad, then 100 mg/kg intraperitoneally
# [8] = 20th day after treatment, 2500 rad, then 100 mg/kg intraperitoneally
# [9] = 20th day after treatment, but 21st day for this compound
# [10] = column head 10th day after treatment, but 9th day for this compound
# [11] = FT-207 100mg/kg x 7 plus enhancer 50mg/kg x 7
compound,measurement,setting,value
"Nc1ncnc2c1ncn2[C@@H]1O[C@H](CO)C[C@H]1O [3'-dAdo, 3'-deoxyadenosine, reference compound]",TCD50,[1],1600
same,Cure number/Number treated (%),"[1]; 1,000 rad",17%
same,Cure number/Number treated,"[1]; 1,000 rad",3/18
same,Cure number/Number treated (%),"[1]; 1,500 rad",48%
same,Cure number/Number treated,"[1]; 1,500 rad",14/29
same,Cure number/Number treated (%),"[1]; 2,100 rad",79%
same,Cure number/Number treated,"[1]; 2,100 rad",11/14
same,Cure number/Number treated (%),"[1]; 2,700 rad",67%
same,Cure number/Number treated,"[1]; 2,700 rad",10/15
same,TCD50 (ratio),[1],0.67
same,LD50 at 168 h,"[2]; intraperitoneally, ICR mice male, observation for a week, read-out: LD50",280 mg/kg
CCCCCC(=O)Nc1ncnc2c1ncn2[C@@H]1O[C@H](CO)C[C@H]1O [N^6-hexanoyl-3'-dAdo],Diameter ratio,[3]; [7],1.11±0.05
same,Mean tumor diameter (mm),[3]; [7],7.90±0.47 mm
same,Sensitizing effect,[3]; 10th day after treatment,0.94
same,Diameter ratio,[3]; [8],1.46±0.05
same,Mean tumor diameter (mm),[3]; [8],10.37±0.42 mm
same,Sensitizing effect,[3]; 20th day after treatment,0.82
CC(=O)Nc1ncnc2c1ncn2[C@@H]1O[C@H](CO)C[C@H]1O [N^6-acetyl-3'-dAdo],Diameter ratio,[3]; [7],1.12±0.06
same,Mean tumor diameter (mm),[3]; [7],7.86±0.55 mm
same,Sensitizing effect,[3]; 10th day after treatment,0.95
same,Diameter ratio,[3]; [8],1.49±0.06
same,Mean tumor diameter (mm),[3]; [8],10.39±0.51 mm
same,Sensitizing effect,[3]; 20th day after treatment,0.84
CCCC(=O)Nc1ncnc2c1ncn2[C@@H]1O[C@H](CO)C[C@H]1O [N^6-butyryl-3'-dAdo],Plating efficiency (%) After 1 hour,"[4]; 40 µg/ml given immediately after 1,000 R of X-rays, stationary phase cells, 1 hour after irradiation",1.4%
same,Plating efficiency (%) After 4 hours,"[4]; 40 µg/ml given immediately after 1,000 R of X-rays, stationary phase cells, 4 hours after irradiation",2.2%
same,Plating efficiency (%) After 7 hours,"[4]; 40 µg/ml given immediately after 1,000 R of X-rays, stationary phase cells, 7 hours after irradiation",2.4%
same,inhibition of repair (PLDR) after irradiation with X-rays,"[4]; result in words, from Table 1",inhibit repair (PLDR)
same,"toxicity, as examined by plating efficiencies","[4]; result in words, agent alone",Substantially no toxicity was observed
same,Mean tumor diameter (mm),"[5]; 9 days after treatment, then 100 mg/kg intraperitoneally",5.36±1.13 mm
same,Diameter ratio,"[5]; 9 days after treatment, 1,500 rad, then 100 mg/kg intraperitoneally",0.83±0.18
same,Sensitizing effect,[5]; 9 days after treatment,0.86
same,Mean tumor diameter (mm),"[5]; 20 days after treatment, then 100 mg/kg intraperitoneally",0.0±0.0 mm
same,Cured cases,"[5]; 20 days after treatment, cure = tumors completely vanished during the observation period, 1,500 rad + 100 mg/kg i.p.",9/9
same,Sensitizing effect,[5]; 20 days after treatment,0.00
same,TCD50,[1],1080
same,Cure number/Number treated (%),"[1]; 1,000 rad",40%
same,Cure number/Number treated,"[1]; 1,000 rad",6/15
same,Cure number/Number treated (%),"[1]; 1,500 rad",65%
same,Cure number/Number treated,"[1]; 1,500 rad",13/20
same,Cure number/Number treated (%),"[1]; 2,100 rad",93%
same,Cure number/Number treated,"[1]; 2,100 rad",14/15
same,Cure number/Number treated (%),"[1]; 2,700 rad",100%
same,Cure number/Number treated,"[1]; 2,700 rad",16/16
same,TCD50 (ratio),[1],0.45
same,Diameter ratio,[3]; [9],1.35±0.08
same,Mean tumor diameter (mm),"[3]; 20th day after treatment, but 21st day for this compound, 2500 rad, then 100 mg/kg intraperitoneally",10.28±0.36 mm
same,Sensitizing effect,[3]; [9],0.76
same,Diameter ratio,[3]; [10],0.90±0.08
same,Mean tumor diameter (mm),"[3]; column head 10th day after treatment, but 9th day for this compound, 2500 rad, then 100 mg/kg intraperitoneally",6.71±0.63 mm
same,Sensitizing effect,[3]; [10],0.76
same,Diameter ratio (mm),[6]; [11],0.97±0.23
same,"Diameter ratio, value in brackets (relative to control = 1.00)",[6]; [11],0.62
same,Mean tumor diameter (mm),"[6]; FT-207 100mg/kg x 7 plus enhancer 50mg/kg x 7 given one hour later, n = 5",6.72±1.69 mm
same,Diameter ratio (mm),"[6]; enhancer alone, 50mg/kg x 7",1.36±0.32
same,"Diameter ratio, value in brackets (relative to control = 1.00)","[6]; enhancer alone, 50mg/kg x 7",0.87
same,Mean tumor diameter (mm),"[6]; enhancer alone, 50mg/kg x 7 intraperitoneally, n = 5",9.92±2.45 mm
same,Enhancing effect,"[6]; ratio in combination / (ratio anti-tumor agent alone x ratio enhancer alone), FT-207 100mg/kg x 7 plus enhancer 50mg/kg x 7",0.94
same,LD50 at 168 h,[2],710 mg/kg
CCCCCCCC(=O)Nc1ncnc2c1ncn2[C@@H]1O[C@H](CO)C[C@H]1O [N^6-octanoyl-3'-dAdo],Diameter ratio,[3]; [7],1.04±0.04
same,Mean tumor diameter (mm),[3]; [7],7.50±0.37 mm
same,Sensitizing effect,[3]; 10th day after treatment,0.88
same,Diameter ratio,[3]; [8],1.33±0.02
same,Mean tumor diameter (mm),[3]; [8],9.61±0.46 mm
same,Sensitizing effect,[3]; 20th day after treatment,0.75
"O=c1[nH]c(=O)n(C2CCCO2)cc1F (stereo not drawn) [FT-207, 1-(2-tetrahydrofuryl)-5-fluorouracil, reference compound]","Diameter ratio, value in brackets (relative to control = 1.00)","[6]; anti-tumor agent alone, 100mg/kg x 7",0.76
same,Mean tumor diameter (mm),"[6]; anti-tumor agent alone, 100mg/kg x 7 intraperitoneally, n = 4",7.80±1.64 mm
